For 29 compounds, Ki results are on record in PMC8158254, “Anion inhibition studies of the α-carbonic anhydrases from Neisseria gonorrhoeae” (Journal of Enzyme Inhibition and Medicinal Chemistry, 2021).

pKi: −log10 of the molar value.

The target in one experiment is T1, NgCA (Neisseria gonorrhoeae, UniProt Q50940).
T1 construct: gene cah
T1 sequence (Q50940 27-252): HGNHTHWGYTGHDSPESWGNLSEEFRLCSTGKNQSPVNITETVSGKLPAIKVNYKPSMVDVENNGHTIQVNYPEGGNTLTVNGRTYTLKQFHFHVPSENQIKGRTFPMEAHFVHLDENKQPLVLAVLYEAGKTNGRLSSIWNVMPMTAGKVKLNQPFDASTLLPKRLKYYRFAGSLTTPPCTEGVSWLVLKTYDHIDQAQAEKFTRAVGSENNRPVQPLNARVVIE
As to the kind of experiment: biochemical.
Details: not given
`I` [I^−] gave a pKi of 2.02.
In the case of `N#CS` [NCS^−], the pKi is 3.04.
Still for that read-out and setting: as for `O=P(O)(O)OP(=O)(O)O` [P2O7^2-], the figure is 2.31.
The compound `O=S(=O)(O)O` [SO4^2-] had a pKi of 3.08.

Still in this experiment, the particulars now being: read-out: NgCA.
Consider `Br` [Br^−], for which the pKi is 2.40.
`O=S(=O)(O)C(F)(F)F` [CF3SO3^−]: the pKi was 2.24.
`S=C(S)S` [CS3^2-]: the pKi was 4.06.
Same read-out and setting: as for `[O-][Cl+3]([O-])([O-])O` [ClO4^−], the figure is less than 1.00; as for `Cl` [Cl^−], 2.32; as for `CCN(CC)C(=S)S` [EtNCS2^−], 5.29.
Still for that read-out and setting: next, `O=S(=O)(O)F` [FSO3^−]: 3.21; `F` [F^−]: 2.08; `O=S(O)O` [HSO3^−]: 3.18.
For `S` [HS^−], the pKi is 3.26.
Still for that read-out and setting: as for `N#CO` [NCO^−], the figure is 3.37; as for `NS(N)(=O)=O` [NH2SO2NH2], 4.24.
The same measure, in the same setting: as for `NS(=O)(=O)O` [NH2SO3H], the figure is 4.62.
On the same count and under the same terms, as for `O=S(=O)(O)NS(=O)(=O)O` [NH(SO3)2^2-], the figure is 3.60.
On to `O=NO` [NO2^−], for which the pKi is 3.23.
The same measure, in the same setting: as for `O=[N+]([O-])O` [NO3^−], the figure is 3.07.
Still for that read-out and setting: next, `OB(O)c1ccccc1` [PhB(OH)2]: 3.82; `[O]=[Re](=[O])(=[O])[OH]` [ReO4^−]: 3.02.
The same measure, in the same setting: as for `[O]=[Ru](=[O])(=[O])[OH]` [RuO4^−], the figure is 2.72.
`O=S(=O)(O)OOS(=O)(=O)O` [S2O8^2-]: the pKi is 3.10.
Still for that read-out and setting: next, `N#C[SeH]` [SeCN^−]: 3.18; `O=[Se](=O)(O)O` [SeO4^2-]: 3.06; `O=[Te](=O)(O)O` [TeO4^2-]: 3.12.
Consider `[O]=[V]([OH])([OH])[O][V](=[O])([OH])[OH]` [V2O7^2-], for which the pKi is 2.55.

Still in this experiment, the particulars now being: sodium salt; CO2 substrate, 10 mM Hepes pH 7.4, 10 mM NaClO4, 15 min preincubation at room temperature; read-out: hCA I.
For the compound `F[P-](F)(F)(F)(F)F` [PF6^−], the pKi was less than 1.00.
